Data set [1] can be described thus: Compressibility of the drug substance. The conditions noted are these: drug substance and its pharmaceutically acceptable salts. It is filed as physicochemical. As for the experimental part:
WO 99/11605, published Mar. 11, 1999 discloses 5-alkyl-2-arylaminophenylacetic acids and derivatives thereof as potent, selective inhibitors of cyclooxygenase-2. […] This active agent, when administered once a day, in a single, immediate release tablet formulation in an amount of about 400 mg, where the active agent comprises about 65% by weight of the tablet, provides effective anti-inflammatory treatment over a 24 hour period, without the use of extended release pharmaceutical formulation excipients and technology, and in a tablet form which is of a size that is easy to swallow.

Data set [2] is described as follows: Plasma half life after oral administration. It counts as in vivo. The conditions noted are these: human. An excerpt: The immediate release pharmaceutical compositions of the invention, and which are useful in the kits and methods of the invention are “immediate release” tablet dosage forms. The tablets of the invention have neither the pharmacokinetic nor physical characteristics of extended release pharmaceutical dosage forms. Thus, a tablet of the invention will disintegrate or dissolve rapidly, preferably within one hour of administration, and administration of a tablet of the invention will result in a rapid rise in the blood plasma concentration of 5-methyl-2-(2′-chloro-6′-fluoroanilino)phenylacetic acid.

Data set [3] can be described thus: Clinical efficacy of once a day oral dose (anti-inflammatory, analgesic). It counts as in vivo, humans. The procedure: Such an agent is particularly useful in the treatment of chronic indications, such as rheumatoid arthritis and osteoarthritis as well as Alzheimer's Disease and prophylaxis of colon cancer, where the drug needs to be taken every day for the duration of a subject's life, because compliance is much easier with once a day dosing.
A single, 400 mg tablet that is easy to swallow facilitates compliance with a once-a-day, 400 mg dose treatment regimen.

The half-life is the time in which the quantity being followed falls by half. Lower therefore signals fast loss.

Molecules are shown by their SMILES.

Turning to `Cc1ccc(Nc2c(F)cccc2Cl)c(CC(=O)O)c1` [5-methyl-2-(2′-chloro-6′-fluoroanilino)phenylacetic acid], the Compressibility result in data set [1] was “poor compressibility”. Also, the half-life in data set [2] fell in the range of 3 to 6 h. In data set [3] (400 mg), the Analgesic efficacy result is “effective analgesic dose”. Besides, the “Anti-inflammatory treatment, duration of action” value in data set [3] (humans, single oral dose of about 400 mg per day, immediate-release tablet) is recorded as “effective, safe anti-inflammatory treatment over a 24 hour period”.

The values above are taken from US20070231382A1, “Pharmaceutical composition” (priority 2001, published 2007).
